In publication PMC3557747 (Bioorganic & medicinal chemistry letters, 2012):
Read-outs that look alike come from different tables or passages of the source.

Key:
[1] = 50 μM; cited from earlier work
human IMPDH2 = settings: read-out: IC50 human IMPDH2; cited from earlier work
human IMPDH1 = settings: read-out: IC50 human IMPDH1; cited from earlier work
CpIMPDH [2] = target: T1, CpIMPDH (Cryptosporidium parvum, UniProt Q8T6T2); settings: with respect to NAD+, cited from earlier work
T1 sequence (Q8T6T2 1-400): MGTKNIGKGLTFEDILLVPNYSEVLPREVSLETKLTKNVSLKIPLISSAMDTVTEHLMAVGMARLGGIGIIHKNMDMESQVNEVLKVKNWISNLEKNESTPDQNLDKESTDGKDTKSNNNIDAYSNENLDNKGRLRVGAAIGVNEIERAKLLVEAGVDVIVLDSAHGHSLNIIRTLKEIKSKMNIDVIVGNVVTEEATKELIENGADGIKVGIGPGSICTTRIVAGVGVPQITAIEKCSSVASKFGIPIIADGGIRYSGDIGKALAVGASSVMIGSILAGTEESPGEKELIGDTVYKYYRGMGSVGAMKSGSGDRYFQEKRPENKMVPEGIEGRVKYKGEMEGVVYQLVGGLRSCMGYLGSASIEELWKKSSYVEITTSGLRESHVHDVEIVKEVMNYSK

T. gondii/CpIMPDH = assay: Antiparasitic activity in Toxoplasma gondii model of C. parvum infection; settings: cultured in hTERT-immortalized human foreskin fibroblasts
CpIMPDH [3] = target: T1, CpIMPDH; assay: Mechanism of CpIMPDH inhibition with respect to NAD+; type: biochemical
C. parvum = assay: IL12 knockout mouse model of C. parvum infection; type: in vivo; settings: 250 mg/kg oral once per day for seven days

Question: For `COc1ccc(NC(=O)Cc2nn(C)c(=O)c3ccccc23)cc1` [Compound 1], which antiparasitic activity [1] is on record?
Answer: The antiparasitic activity was “did not display antiparasitic activity”.

Question: And the IC50 (human IMPDH2)?
Answer: Its IC50 is over 50 µM.

Question: And the IC50 (human IMPDH1)?
Answer: The IC50 was over 50 µM.

Question: And the Ki (CpIMPDH [2]; read-out: Kis)?
Answer: Its Ki is 1.8 µM.

Question: And the mode of inhibition (CpIMPDH [2])?
Answer: Its mode of inhibition is “mixed inhibitor”.

Question: With `Cn1nc(CC(=O)Nc2ccc(Br)c(C(F)(F)F)c2)c2ccccc2c1=O` [Compound 26] as the compound, how does the “EC50 Toxo/CpIMPDH” value (T. gondii/CpIMPDH) read?
Answer: Its value is “sub-micromolar activity”.

Question: With `Cn1nc(CC(=O)Nc2ccc(Cl)c(C(F)(F)F)c2)c2ccccc2c1=O` [Compound 27] as the compound, how does the mode of inhibition (CpIMPDH [3]) read?
Answer: The mode of inhibition was “pure noncompetitive inhibitor”.

Question: What about the “EC50 Toxo/CpIMPDH” value (T. gondii/CpIMPDH) of the same compound?
Answer: The value was “sub-micromolar activity”.

Question: And the “antiparasitic activity in vivo” value (C. parvum)?
Answer: The value was “no antiparasitic activity was observed”.

Question: Which “EC50 Toxo/CpIMPDH” value (T. gondii/CpIMPDH) does the source give for `Cn1nc(CC(=O)Nc2ccc3oc4c(c3c2)CCCC4)c2ccccc2c1=O` [Compound 53] here?
Answer: The value was “sub-micromolar activity”.

Question: With `Cn1nc(CC(=O)Nc2ccc3oc4ccccc4c3c2)c2ccccc2c1=O` [Compound 54] as the compound, how does the “EC50 Toxo/CpIMPDH” value (T. gondii/CpIMPDH) read?
Answer: Its value is “sub-micromolar activity”.
